Columns and labels:
[1] = tested on: left saphenous nerve of rats (ectopic firing); experiment: Inhibition of ectopic firing; type: in vivo; conditions: Rattus norvegicus, iv; rats with cut left saphenous nerve, urethane anesthesia, compound via catheter in right cervical vein, number of firings in 10 seconds; read-out: Inhibition of ectopic firing (ID50)
Protocol: <Inhibition of Ectopic Firing>
(1) The inhibitory effect on ectopic firing was evaluated by the following method, with reference to Burchiel, K J., Exp. Neurol., 102, 249-253 (1988).
(2) The left saphenous nerve of rats, in which ectopic firing was observed, was cut near the knee joint, and approximately 3 mm was cut off to avoid reattachment of the cut nerve. After more than a week, the left saphenous nerve was exposed under urethane (1 g/kg body weight) anesthesia, and the proximal part up to approximately 1 cm from the cut site was detached from the surrounding tissue. A catheter was inserted in the right cervical vein beforehand for administration of the compound.
(3) The detached nerve was placed on a platinum hook electrode and wetted with liquid paraffin to avoid drying of the nerve. The electrode was connected to a microelectrode amplifier, and the change in potential was recorded from an oscilloscope through an A/D converter onto a computer. The recorded nerve firing was evaluated based on the number of firings in 10 seconds, using analyzing software (AcqKnowledge).

sodium channels = type: cell-based; conditions: read-out: IC50 (μM), sodium channel-inhibiting activity; rat fetal cultured hippocampal neurons, SBFI fluorescence in the presence of 4-aminopyridine, 5 minutes after addition, 1 μM tetrodotoxin = 100%

## O=c1[nH]ccnc1CN1CCC(C#Cc2ccccc2F)CC1 [Example 170, 3-[4-[(2-Fluorophenyl)ethynyl]piperidino]methyl-1H-pyrazin-2-one]
[1]
  ED50: < 0.5 mg/kg
Sodium channels
  IC50: 0.4 µM

## Cc1ccccc1/C=C/C1CCN(Cc2ncc[nH]c2=O)CC1 [Example 171, (E)-3-[4-[2-(2-Methylphenyl)vinyl]piperidino]methyl-1H-pyrazin-2-one]
[1]
  ED50: < 0.5 mg/kg
Sodium channels
  IC50: 0.6 µM

## O=c1[nH]ccnc1CN1CCC(CCc2sccc2F)CC1 [Example 172, 3-[4-[2-(3-Fluoro-2-thienyl)ethyl]piperidino]methyl-1H-pyrazin-2-one]
[1]
  ED50: 0.5 to 1 mg/kg
Sodium channels
  IC50: 5 µM

## O=C(CC1CCN(Cc2ncc[nH]c2=O)CC1)c1ccccc1Cl [Example 174, 3-[4-[2-(2-Chlorophenyl)-2-oxoethyl]piperidino]methyl-1H-pyrazin-2-one]
[1]
  ED50: < 0.5 mg/kg
Sodium channels
  IC50: 3.6 µM

## O=c1[nH]ccnc1CN1CCC(/C=C/c2cccc(F)c2)CC1 [Example 176, (E)-3-[4-[2-(3-Fluorophenyl)vinyl]piperidino]methyl-1H-pyrazin-2-one]
[1]
  ED50: 0.5 to 1 mg/kg
Sodium channels
  IC50: 5.4 µM

## O=c1[nH]ccnc1CN1CCC(CCc2ccccc2F)CC1 [Example 177, 3-[4-[2-(2-Fluorophenyl)ethyl]piperidino]methyl-1H-pyrazin-2-one]
[1]
  ED50: < 0.5 mg/kg
Sodium channels
  IC50: 4.5 µM

## O=C(Cc1ccccc1F)C1CCN(Cc2ncc[nH]c2=O)CC1 [Example 179, 3-[4-[2-(2-Fluorophenyl)acetyl]piperidino]methyl-1H-pyrazin-2-one]
[1]
  ED50: < 0.5 mg/kg
Sodium channels
  IC50: 4.6 µM

## O=C(Cc1ccccc1Cl)C1CCN(Cc2ncc[nH]c2=O)CC1 [Example 183, 3-[4-[2-(2-Chlorophenyl)acetyl]piperidino]methyl-1H-pyrazin-2-one]
[1]
  ED50: < 0.5 mg/kg
Sodium channels
  IC50: 2.6 µM

## Cc1ccccc1CC(=O)C1CCN(Cc2ncc[nH]c2=O)CC1 [Example 184, 3-[4-[2-(2-Methylphenyl)acetyl]piperidino]methyl-1H-pyrazin-2-one]
[1]
  ED50: < 0.5 mg/kg
Sodium channels
  IC50: 2.9 µM

## O=c1[nH]ccnc1CN1CCC(c2nc(-c3ccccc3F)no2)CC1 [Example 187, 3-[4-[3-(2-Fluorophenyl)-1,2,4-oxadiazol-5-yl]piperidino]methyl-1H-pyrazin-2-one]
[1]
  ED50: 0.5 to 1 mg/kg
Sodium channels
  IC50: 3.5 µM

## O=c1[nH]ccnc1CN1CCC(c2nc(-c3cccc(F)c3)no2)CC1 [Example 188, 3-[4-[3-(3-Fluorophenyl)-1,2,4-oxadiazol-5-yl]piperidino]methyl-1H-pyrazin-2-one]
[1]
  ED50: 0.5 to 1 mg/kg
Sodium channels
  IC50: 5 µM

## Cc1cccc(CC(=O)C2CCN(Cc3ncc[nH]c3=O)CC2)c1 [Example 192, 3-[4-[2-(3-Methylphenyl)acetyl]piperidino]methyl-1H-pyrazin-2-one]
[1]
  ED50: 0.5 to 1 mg/kg
Sodium channels
  IC50: 3.8 µM

## COc1ccccc1CC(=O)C1CCN(Cc2ncc[nH]c2=O)CC1 [Example 193, 3-[4-[2-(2-Methoxyphenyl)acetyl]piperidino]methyl-1H-pyrazin-2-one]
[1]
  ED50: < 0.5 mg/kg
Sodium channels
  IC50: 2.9 µM

## O=C(Cc1c(F)cccc1F)C1CCN(Cc2ncc[nH]c2=O)CC1 [Example 195, 3-[4-[2-(2,6-Difluorophenyl)acetyl]piperidino]methyl-1H-pyrazin-2-one]
[1]
  ED50: 0.5 to 1 mg/kg
Sodium channels
  IC50: 2 µM

## O=c1[nH]ccnc1CN1CCC(COc2ccccc2)CC1 [Example 198, 3-[4-(Phenoxymethyl)piperidino]methyl-1H-pyrazin-2-one]
[1]
  ED50: < 0.5 mg/kg
Sodium channels
  IC50: 1.6 µM

## O=C(Cc1cccc(F)c1F)C1CCN(Cc2ncc[nH]c2=O)CC1 [Example 200, 3-[4-[2-(2,3-Difluorophenyl)acetyl]piperidino]methyl-1H-pyrazin-2-one]
[1]
  ED50: 0.5 to 1 mg/kg
Sodium channels
  IC50: 1.6 µM

## O=c1[nH]ccnc1CN1CCC(COc2c(F)cccc2F)CC1 [Example 201, 3-[4-(2,6-Difluorophenoxymethyl)piperidino]methyl-1H-pyrazin-2-one]
[1]
  ED50: 0.5 to 1 mg/kg
Sodium channels
  IC50: 6.7 µM

Source: US20050245527A1, “Nitrogen containing heterocyclic compounds and medicines containing the same” (priority 2002, published 2005)
